Biological target: Human insulin (HI) (Homo sapiens, UniProt P01308)
Assay: ITC, insulin titrated into CBBG, one-site model
Type: binding

Human insulin (HI), sequence (P01308 25-54): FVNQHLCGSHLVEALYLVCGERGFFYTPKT
Human insulin (HI), sequence (P01308 90-110): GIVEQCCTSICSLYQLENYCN

Kd: 12.5 µM
Compound: CCOc1ccc(Nc2ccc(/C(=C3C=C/C(=[N+](/CC)Cc4cccc(S(=O)(=O)[O-])c4)C=C/3C)c3ccc(N(CC)Cc4cccc(S(=O)(=O)O)c4)cc3C)cc2)cc1 [Coomassie Brilliant Blue G-250]

From paper doi:10.1101/2020.08.26.267799v1 (biorxiv, 2020)
